Measurements: publication PMC11671526, “β-caryophyllene sensitizes hepatocellular carcinoma cells to chemotherapeutics and inhibits cell malignancy through targeting MAPK signaling pathway” (Frontiers in Pharmacology, 2024)

Key:
HepG2 cells [1] = assay: Colony formation assay with ectopic PGF expression; format: cell-based, human
Source text: (§1) The placental growth factor (PGF) coding sequence was amplified using gene specific primers and then subcloned into a lentiviral vector pSL4-Flag expressing the puromycin resistance gene to generate pSL4-Flag-PGF vector with a CMV promoter driving PGF expression. The primers used to amplify the PGF coding sequence, check the amplified DNA fragment and verify its ectopic expression are listed in Supplementary Table S1. Lentiviruses carrying pSL4-Flag-PGF and an empty pSL4-Flag vector were produced and used to infect HCC cells based on our previously reported procedure ([Wan et al., 2012]). Ectopic PGF expression was achieved by infecting HCC cells with pSL4-Flag-PGF lentivirus, and the control cells were produced by infecting HCC cells using lentivirus carrying the empty pSL4-Flag-vector.
HepG2 cells were cultured overnight into 12-well plates with a density of 1×10^3 cells/well. The cells were then individually infected by pSL4-Flag-vector and pSL4-Flag-PGF lentiviruses. After 24 h, the cells were cultured in a complete medium containing 150 µM of BCP or an equal volume of ethanol for 10 days. The plates were washed using ice-cold PBS three times and cells were fixed using 70% ice-cold methanol for 20 min. […] The stained wells were photographed and clonogenicity was analyzed using ImageJ software.

HepG2 cells [2] = assay: CCK8 viability of cells infected by pSL4-Flag vector or pSL4-Flag-PGF lentivirus; format: cell-based; conditions: Homo sapiens, HepG2, 48 h
Procedure: (§2) Cell viability assay using the CCK8 reagent (Bimake, Shanghai, China) was conducted according to the manufacturer’s instructions. The cell proliferation data were used to calculate the cell viability. Briefly, HepG2, SMMC-7721, and HL-7702 cells with a density of 5 × 10^3 cells/well were seeded into each well of 96-well plates and incubated overnight. […] After 48 h, 10 µL of CCK8 reagent was added to each well, followed by 2 h incubation at 37°C and measurement of absorbance at 450 nm using a microplate reader (Molecular Devices, LLC.). The cell viability percentage of all compounds or their combinations at certain concentrations during the treatment period was evaluated by normalizing absorbance at 450 nm to that of vehicle controls. The half maximal inhibitory concentrations (IC50) values were calculated using the GraphPad Prism 8 software.
as §1

SMMC-7721 cells [3] = assay: as above; format: cell-based; conditions: Homo sapiens
Procedure: as §2, §1

HepG2 cells [4] = assay: CCK8 cell viability assay; format: cell-based, human; conditions: Homo sapiens; HepG2, 48 h, individual treatment; read-out: IC50 (half maximal inhibitory concentration)
Procedure: (§3) Cell viability assay using the CCK8 reagent (Bimake, Shanghai, China) was conducted according to the manufacturer’s instructions. The cell proliferation data were used to calculate the cell viability. Briefly, HepG2, SMMC-7721, and HL-7702 cells with a density of 5 × 10^3 cells/well were seeded into each well of 96-well plates and incubated overnight. […] After 48 h, 10 µL of CCK8 reagent was added to each well, followed by 2 h incubation at 37°C and measurement of absorbance at 450 nm using a microplate reader (Molecular Devices, LLC.). […] The effects of the combinatorial inhibition were visualized by isobologram analyses ([Tallarida, 2001]). […] A line was drawn to link the two IC50 points. […] The dots above, on, or below the line indicate the “antagonistic,” “additive” and “synergistic” effects, respectively. The same method was used to obtain the CI value for the cotreatment of BCP and DDP.

[5] = tested on: HL-7702 normal liver cells; assay: CCK8 cell viability assay; format: cell-based, human; conditions: Homo sapiens, L02; HL-7702, 48 h, individual treatment; read-out: IC50 (half maximal inhibitory concentration)
Procedure: as §3

SMMC-7721 cells [6] = assay: CCK8 cell viability assay; format: cell-based, human; conditions: Homo sapiens; SMMC-7721, 48 h, individual treatment; read-out: IC50 (half maximal inhibitory concentration)
Procedure: as §3

## C=C1CC/C=C(\C)CC[C@@H]2[C@@H]1CC2(C)C [BCP, β-caryophyllene]
HepG2 cells [1]; HepG2 carrying pSL4-vector, 150 µM BCP 10 days, compared to control without BCP
  colony formation: significantly decreased colonies
HepG2 cells [1]; HepG2 expressing ectopic PGF vs empty vector, same BCP treatment (150 µM, 10 days)
  colony formation: more colonies
HepG2 cells [2]; HepG2 cells carrying empty vector
  IC50: 178 µM
HepG2 cells [2]; HepG2 cells expressing Flag-PGF
  IC50: 284 µM
SMMC-7721 cells [3]; SMMC-7721, SMMC-7721 cells carrying empty vector
  IC50: 318 µM
SMMC-7721 cells [3]; SMMC-7721, SMMC-7721 cells expressing Flag-PGF
  IC50: 405 µM
HepG2 cells [4]
  IC50: 194 ± 3.2 µM
[5]
  IC50: 610.9 ± 2.72 µM
SMMC-7721 cells [6]
  IC50: 334.5 ± 2.96 µM
